# According to patent US10869931B2, “Polyethylene glycol-modified angiogenesis inhibitor HM-1 and application thereof” (NANJING ANJI BIOLOGICAL TECHNOLOGY CO.,LTD, priority 2016, dated 2020):
# Marks after values point to notes of the source that are not given here. Where no end group is shown, it is not given here.
# Assays:
# [1] = test system: Cervical cancer tumor cells; assay: MTT proliferation inhibition, cervical cancer cells; format: cell-based, human; design: concentration or dose not given beside the values; conditions: 48 h
# In short: (§1)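 Tumour cells plated at 2×10^4 cells/mL, attached overnight, then exposed to dilutions of mPEG-HM-1 for 48 h at 37 °C, 5% CO2. MTT added 4 h, formazan dissolved in DMSO, absorbance 570/630 nm; growth inhibition = 1 − treated/untreated, three independent repeats, mean±SD.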
# [2] = test system: Bladder Cancer tumor cells; assay: MTT proliferation inhibition, bladder cancer cells; format: cell-based, human; design: concentration or dose not given beside the values; conditions: 48 h
# In short: as §1
# [3] = test system: IL-1β production by mouse peritoneal macrophages; assay: IL-1β production by mouse peritoneal macrophages (ELISA); format: cell-based; conditions: 48 h
# In short: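 Starch-elicited mouse peritoneal macrophages (2×10^6 cells/mL), adhered 3 h, treated with low, medium and high concentrations of mPEG-HM-1 for 48 h; dexamethasone as positive control. Supernatant IL-1β quantified by sandwich ELISA at OD450.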
# [4] = test system: Esophageal cancer tumor cells; assay: MTT proliferation inhibition, esophageal cancer cells; format: cell-based, human; design: concentration or dose not given beside the values; conditions: 48 h
# In short: as §1
# [5] = test system: Melanoma tumor cells; assay: MTT proliferation inhibition, melanoma cells; format: cell-based, human; design: concentration or dose not given beside the values; conditions: 48 h
# In short: as §1
# [6] = test system: adjuvant arthritis (AA) SD rats; assay: Adjuvant arthritis (AA) rat model; format: in vivo; conditions: AA SD rats; for Clinical score: maximum score 16
# [7] = test system: Gastric cancer tumor cells; assay: MTT proliferation inhibition, gastric cancer cells; format: cell-based, human; design: concentration or dose not given beside the values; conditions: 48 h
# In short: as §1
# [8] = in vivo
# [9] = test system: Human Umbilical Vein Endothelial Cells (HUVEC); assay: Transwell migration of HUVEC; format: cell-based; conditions: 24 h
# In short: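 HUVEC (1×10^5/mL in blank medium) seeded with test solutions into Matrigel-coated transwell inserts, lower chamber holding medium with 5% FBS and 1% ECGS, 24 h at 37 °C. Migrated cells crystal-violet stained and counted in four fields; migration inhibition calculated from test versus blank-control counts, three independent repeats.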
# [10] = 40 mg/kg subcutaneous once every three days
# [11] = 10 mg/kg subcutaneous once every three days
substance,measurement,setting,value
mPEG-bALD20k-Arg-Gly-Ala-Asp-Arg-Ala-Gly-Gly-Gly-Gly-Arg-Gly-Asp ({mPEG‑bALD 20 kDa}-RGADRAGGGGRGD) [mPEG-bALD20k-HM-1],rate of growth inhibition,[1],78.57 ± 20.11%
same,rate of growth inhibition,[2],45.24 ± 10.69%
same,IL-1β,[3]; 20 μg/mL,738.66 ± 12.81 pg/mL
same,Inhibition Rate of IL-1β production,[3]; 20 μg/mL,19.90%
same,IL-1β,[3]; 40 μg/mL,640.26 ± 14.28 pg/mL
same,Inhibition Rate of IL-1β production,[3]; 40 μg/mL,30.57%
same,IL-1β,[3]; 80 μg/mL,487.37 ± 12.06 pg/mL
same,Inhibition Rate of IL-1β production,[3]; 80 μg/mL,47.15%
same,rate of growth inhibition,[4],60.56 ± 14.72%
same,rate of growth inhibition,[5],80.75 ± 22.94%
same,Joint swelling,[6]; [10],0.77 ± 0.23 mm
same,Left and right paw swelling,[6]; [10],3.78 ± 0.63 mm
same,Clinical score,[6]; [10],5.68 ± 1.10
same,rate of growth inhibition,[7],70.21 ± 18.32%
same,AUC0-∞,[8],5872.56 ± 8.72 mg/L/h
same,CL,[8],0.212 ± 0.155 mL/min/kg
same,MRT0-∞,[8],18.32 ± 2.99 h
same,T1/2β (half-life),[8],22.94 ± 0.24 h
same,inhibition rate of HUVEC migration,[9]; 80 μg/mL,55.68%
same,inhibition rate of HUVEC migration,[9]; 90 μg/mL,53.82%
mPEG-ALD5k-Arg-Gly-Ala-Asp-Arg-Ala-Gly-Gly-Gly-Gly-Arg-Gly-Asp ({mPEG‑ALD 5 kDa}-RGADRAGGGGRGD) [mPEG-ALD5k-HM-1],rate of growth inhibition,[1],61.12 ± 18.39%
same,rate of growth inhibition,[2],35.93 ± 10.29%
same,IL-1β,[3]; 5 μg/mL,734.73 ± 16.59 pg/mL
same,Inhibition Rate of IL-1β production,[3]; 5 μg/mL,19.87%
same,IL-1β,[3]; 10 μg/mL,654.50 ± 18.43 pg/mL
same,Inhibition Rate of IL-1β production,[3]; 10 μg/mL,28.62%
same,IL-1β,[3]; 20 μg/mL,516.13 ± 10.95 pg/mL
same,Inhibition Rate of IL-1β production,[3]; 20 μg/mL,43.71%
same,rate of growth inhibition,[4],44.63 ± 10.86%
same,rate of growth inhibition,[5],63.61 ± 21.30%
same,Joint swelling,[6]; [11],0.72 ± 0.17 mm
same,Left and right paw swelling,[6]; [11],3.92 ± 0.67 mm
same,Clinical score,[6]; [11],5.91 ± 1.09
same,rate of growth inhibition,[7],58.77 ± 15.49%
same,AUC0-∞,[8],4986.29 ± 10.16 mg/L/h
same,CL,[8],0.843 ± 0.157 mL/min/kg
same,MRT0-∞,[8],8.15 ± 4.21 h
same,T1/2β (half-life),[8],9.13 ± 0.11 h
same,cell migration number (Mean ± SD),[9]; 30 μg/mL,606.88 ± 58.90
same,inhibition rate of HUVEC migration,[9]; 30 μg/mL,41.02%*
same,cell migration number (Mean ± SD),[9]; 40 μg/mL,494.52 ± 52.69
same,inhibition rate of HUVEC migration,[9]; 40 μg/mL,51.94%
same,cell migration number (Mean ± SD),[9]; 50 μg/mL,415.39 ± 44.92
same,inhibition rate of HUVEC migration,[9]; 50 μg/mL,59.63%
same,cell migration number (Mean ± SD),[9]; 60 μg/mL,578.69 ± 66.03
same,inhibition rate of HUVEC migration,[9]; 60 μg/mL,43.76%*
